In patent US20240067639A1, “SMALL MOLECULES THAT TARGET THE RNA THAT CAUSES ALS” (EXPANSION THERAPEUTICS, INC., priority 2020, published 2024) one finds Ki and IC25 data, which are given here for 35 compounds.

Structures are written as SMILES. Read-outs that look alike come from different tables or passages of the source.

In assay [1] the target is biotinylated r(G4C2)8 RNA and hnRNP H1-His6. In words: TR-FRET hnRNP H binding assay. How it is done: TR-FRET hnRNP H Binding Assay. The TR-FRET assays were performed as previously described (Disney et al., 2012) except the final concentrations of biotinylated r(G4C2)8 (SEQ ID NO: 2) RNA and hnRNP H1-His6 were 80 nM and 75 nM, respectively. The RNA was folded by heating to 95° C. for 5 min in 1× Folding Buffer followed by slowly cooling to room temperature. The buffer was adjusted to 1×TR-FRET Assay Buffer followed by addition of compound. The mixture was incubated for 15 min at room temperature and then hnRNP H1-His6 was added. After an additional 15 min incubation, streptavidin-XL665 (HTRF, Cisbio Bioassays) and anti-His6-Tb (HTRF, Cisbio Bioassays) were added to a final concentration of 40 nM and 0.44 ng/μL, respectively. After incubating for 1 h, TR-FRET was measured as previously described. The IC50s were either calculated by fitting the equation (1) in Graphpad Prism.
For orientation: Time-resolved FRET reads energy transfer from a long-lived donor to a nearby acceptor.

Assay [2] has as its system RAN translation of (G4C2)66-No ATG-GFP in HEK293T cells. In words: Cell-based assay of RAN translation inhibition (GFP/mCherry reporter). As to conditions: Homo sapiens, HEK-293T, 24 h, read-out: RANT IC25.
Where [3] appears, read: Table D, HEK293T, 24 h treatment.
Setting [4] is: Table F, HEK293T, 24 h treatment.

The term Ki denotes the equilibrium dissociation constant of an inhibitor or competing ligand from its target. A higher Ki goes with a looser hold on the target. A word on the IC25: it is the concentration at which the effect reaches the 25% level. `Cc1c2ccncc2cc2c3cc(OCCN)ccc3n(C)c12` [Example 32, 2-((5,6-dimethyl-6H-pyrido[4,3-b]carbazol-9-yl)oxy)ethanamine] showed a Ki in assay [1] (Table D) of 9.5 µM. Also, the IC25 in assay [2] (setting [3]) was found to be 1.4 µM.
As for `Cc1c2ccncc2cc2c1[nH]c1ccc(OCCN3CCOCC3)cc12` [Compound 250, 4-(2-((5-methyl-6H-pyrido[4,3-b]carbazol-9-yl)oxy)ethyl)morpholine], the inhibitory constant (Ki) in assay [1] (Table F) is 11 µM. Also, in assay [2] (setting [4]), the concentration for an effect of 25% (IC25) was over 5 µM.
With `Cc1c2ccncc2cc2c3cc(OCc4nccn4C)ccc3n(C)c12` [Example 35, 5,6-dimethyl-9-((1-methyl-1H-imidazol-2-yl)methoxy)-6H-pyrido[4,3-b]carbazole], the affinity in assay [1] (Table D), expressed as Ki, was 38 µM. Also, the 25% effect concentration (IC25) in assay [2] (setting [3]) was over 5 µM.
For `COc1ccc2c(c1)c1cc3ccncc3c(C)c1n2C` [Example 50, 7-methoxy-10,11-dimethyl-10H-pyrido[3,4-b]carbazole] the same measures were 33 µM and 0.27 µM.
For `COc1ccc2c(c1)c1cc3cnccc3c(C)c1n2C` [Compound 1, 9-methoxy-5,6-dimethyl-6H-pyrido[4,3-b]carbazole] the same measures were over 200 µM and over 5 µM.
In turn, `Cc1c2ccncc2cc2c3cc(C(=O)N(C)C)ccc3n(C)c12` [Example 71, N,N,5,6-tetramethyl-6H-pyrido[4,3-b]carbazole-9-carboxamide] registered an inhibitory constant (Ki) in assay [1] (Table D) of 107 µM. In assay [2] (setting [3]), the 25% effect concentration (IC25) was over 5 µM.
In assay [1] (Table D), `Cc1c2ccncc2cc2c3cc(OCCN4CCOCC4)ccc3n(C)c12` [Compound 11, 4-(2-((5,6-dimethyl-6H-pyrido[4,3-b]carbazol-9-yl)oxy)ethyl)morpholine] gave an inhibition constant Ki of 16 µM. In assay [2] (setting [3]), the IC25 was 0.4 µM.
As to `Cc1c2ccncc2cc2c3cc(OCCN4CCOCC4)ccc3n(CCC(C)C)c12` [Compound 248, 4-(2-((6-isopentyl-5-methyl-6H-pyrido[4,3-b]carbazol-9-yl)oxy)ethyl)morpholine], the Ki in assay [1] (Table F) is over 200 µM. Further, the 25% effect concentration (IC25) in assay [2] is over 5 µM.
Take `CCN(CC)CCOc1ccc2c(c1)c1cc3cnccc3c(C)c1n2C` [Example 33, 2-((5,6-dimethyl-6H-pyrido[4,3-b]carbazol-9-yl)oxy)-N,N-diethylethanamine]: the inhibitory constant (Ki) in assay [1] (Table D) is 5.2 µM. In assay [2], the IC25 amounted to 3.7 µM.
In turn, `Cc1c2ccncc2cc2c3cc(OCCN4CCC(C)(C)CC4)ccc3n(C)c12` [Compound 223, 9-(2-(4,4-dimethylpiperidin-1-yl)ethoxy)-5,6-dimethyl-6H-pyrido[4,3-b]carbazole] came in with an inhibition constant Ki in assay [1] (Table F) of 3.1 µM. The IC25 in assay [2] (setting [4]) was 3.8 µM.
In assay [1] (Table F), `Cc1c2ccncc2cc2c3cc(OCCN4CCS(=O)(=O)CC4)ccc3n(C)c12` [Compound 217, 4-(2-((5,6-dimethyl-6H-pyrido[4,3-b]carbazol-9-yl)oxy)ethyl)thiomorpholine 1,1-dioxide] gave an inhibition constant Ki of 8.5 µM. Moreover, the IC25 in assay [2] (setting [4]) is over 5 µM.
For the compound `COc1ccc2c3cc4c(C(=O)N[C@H](C)CN(C)C)nccc4c(C)c3n(C)c2c1` [Example 82, (R)—N-(1-(dimethylamino)propan-2-yl)-8-methoxy-5,6-dimethyl-6H-pyrido[4,3-b]carbazole-1-carboxamide], the inhibition constant Ki in assay [1] (Table D) was found to be 20 µM. Besides, the IC25 in assay [2] (setting [3]) was over 5 µM.
Regarding `COc1ccc2c(c1)c1cc3c(C(=O)N[C@@H](C)CN(C)C)nccc3c(C)c1n2C` [Example 27, (S)—N-(1-(dimethylamino)propan-2-yl)-9-methoxy-5,6-dimethyl-6H-pyrido[4,3-b]carbazole-1-carboxamide], the affinity in assay [1] (Table D) corresponds to a Ki of 9.1 µM. Besides, the IC25 in assay [2] (setting [3]) is 1 µM.
For `Cc1c2ccncc2cc2c3cc(OC[C@H]4CCCN4)ccc3n(C)c12` [Example 38, (R)-5,6-dimethyl-9-(pyrrolidin-2-ylmethoxy)-6H-pyrido[4,3-b]carbazole] the same measures were 0.76 µM and 0.74 µM.
Turning to `Cc1c2ccncc2cc2c3cccc(OCCN(C)C)c3n(C)c12` [Compound 220, 2-((5,6-dimethyl-6H-pyrido[4,3-b]carbazol-7-yl)oxy)-N,N-dimethylethanamine], affinity in assay [1] (Table F) was put at a Ki of 2.3 µM. The IC25 in assay [2] is over 5 µM.
As to `Cc1c2ccncc2cc2c3cc(OCCN4CCOCC4)ccc3n(C(C)C)c12` [Compound 235, 4-(2-((6-isopropyl-5-methyl-6H-pyrido[4,3-b]carbazol-9-yl)oxy)ethyl)morpholine], in assay [1] (Table F), the inhibitory constant (Ki) is over 200 µM. Besides, in assay [2], the concentration for an effect of 25% (IC25) is over 5 µM.
As to `Cc1c2ccncc2cc2c3c(OCCN(C)C)cccc3n(C)c12` [Example 55, 2-((5,6-dimethyl-6H-pyrido[4,3-b]carbazol-10-yl)oxy)-N,N-dimethylethanamine], in assay [1] (Table D), the affinity corresponds to a Ki of 1.5 µM. For the same compound, the 25% effect concentration (IC25) in assay [2] was 0.92 µM.
With `Cc1c2ccncc2cc2c3cc(C(=O)NCCO)ccc3n(C)c12` [Example 78, N-(2-hydroxyethyl)-5,6-dimethyl-6H-pyrido[4,3-b]carbazole-9-carboxamide], in assay [1] (Table D), the inhibitory constant (Ki) turned out to be 3.6 µM. The IC25 in assay [2] (setting [3]) came to 1.6 µM.
Compound `Cc1c2ccnc(C(=O)N[C@H](C)CN(C)C)c2cc2c3cc(OCCCN4CCN(C)CC4)ccc3n(C)c12` [Example 26, (R)—N-(1-(dimethylamino)propan-2-yl)-5,6-dimethyl-9-(3-(4-methylpiperazin-1-yl)propoxy)-6H-pyrido[4,3-b]carbazole-1-carboxamide] yielded a Ki in assay [1] (Table D) of 5.9 µM. In addition, the 25% effect concentration (IC25) in assay [2] (setting [3]) was 0.57 µM.
For `Cc1c2ccncc2cc2c3cc(OCC(=O)N4CCN(C)CC4)ccc3n(C)c12` [Example 60, 2-((5,6-dimethyl-6H-pyrido[4,3-b]carbazol-9-yl)oxy)-1-(4-methylpiperazin-1-yl)ethanone] the same measures were 3.8 µM and over 5 µM.
Take `Cc1c2ccncc2cc2c3cccc(OCCN4CCOCC4)c3n(C)c12` [Example 64, 4-(2-((5,6-dimethyl-6H-pyrido[4,3-b]carbazol-7-yl)oxy)ethyl) morpholine]: the inhibition constant (Ki) in assay [1] (Table D) is over 200 µM. Also, in assay [2] (setting [3]), the IC25 was over 5 µM.
Regarding `Cn1c2ccc(OCC3=NCCN3)cc2c2cc3cnccc3cc21` [Compound 234, 9-((4,5-dihydro-1H-imidazol-2-yl)methoxy)-6-methyl-6H-pyrido[4,3-b]carbazole], in assay [1] (Table F), affinity was put at a Ki of 0.8 µM. Further, the IC25 in assay [2] (setting [4]) is 0.65 µM.
`CCn1c2ccc(OCC3=NCCN3)cc2c2cc3cnccc3c(C)c21` [Example 63, 9-((4,5-dihydro-1H-imidazol-2-yl)methoxy)-6-ethyl-5-methyl-6H-pyrido[4,3-b]carbazole] yielded an inhibitory constant (Ki) in assay [1] (Table D) of 1.8 µM. For the same compound, in assay [2] (setting [3]), the IC25 was determined as 4.8 µM.
With `COc1ccc2c(c1)c1cc3cnccc3c(C)c1n2C(C)C` [Compound 18, 6-isopropyl-9-methoxy-5-methyl-6H-pyrido[4,3-b]carbazole], the Ki in assay [1] (Table D) is over 200 µM.
Take `COc1cccc2c1c1cc3c(C(=O)N[C@H](C)CN(C)C)nccc3c(C)c1n2C` [Example 65, (R)—N-(1-(dimethylamino)propan-2-yl)-10-methoxy-5,6-dimethyl-6H-pyrido[4,3-b]carbazole-1-carboxamide]: the affinity in assay [1] (Table D) corresponds to a Ki of 4.2 µM.
In turn, `Cc1c2ccncc2cc2c1sc1ccc(OCCN3CCOCC3)cc12` [Example 81, 4-[2-(5-methylbenzothiopheno[2,3-g]isoquinolin-9-yl)oxyethyl]morpholine] gave a Ki in assay [1] (Table D) of over 200 µM.
In assay [1] (Table F), `Cn1c2ccc(OCCN3CCOCC3)cc2c2cc3ncccc3cc21` [Compound 225, 4-(2-((6-methyl-6H-pyrido[3,2-b]carbazol-9-yl)oxy)ethyl)morpholine] displayed a Ki of over 200 µM.
In assay [1] (Table F), `CN(C)CCOc1ccc2c(c1)c1cc3ncccc3cc1n2C` [Compound 226, N,N-dimethyl-2-((6-methyl-6H-pyrido[3,2-b]carbazol-9-yl)oxy)ethanamine] gave a Ki of 13 µM.
In assay [1] (Table D), `COc1ccc2c(c1)c1cc3cnccc3c(C)c1n2CC1=NCCN1` [Compound 21, 6-((4,5-dihydro-1H-imidazol-2-yl)methyl)-9-methoxy-5-methyl-6H-pyrido[4,3-b]carbazole] registered a Ki of over 200 µM.
In assay [1] (Table D), `Cc1c2ccncc2cc2c3cc(OCC(=O)O)ccc3n(C)c12` [Compound 4b, 2-((5,6-dimethyl-6H-pyrido[4,3-b]carbazol-9-yl)oxy)acetic acid] showed a Ki of over 200 µM.
In turn, `Cc1c2ccncc2cc2c3cc(OCC(=O)NCCCN(C)C)ccc3n(C)c12` [Example 58, 2-((5,6-dimethyl-6H-pyrido[4,3-b]carbazol-9-yl)oxy)-N-(3(dimethylamino)propyl)-acetamide] showed an inhibitory constant (Ki) in assay [1] (Table D) of 1 µM.
Compound `COc1ccc2oc3c(C)c4ccncc4cc3c2c1` [Example 66, 9-methoxy-5-methyl-benzofuro[2,3-g]isoquinoline] returned an inhibitory constant (Ki) in assay [1] (Table D) of over 200 µM.
`COc1ccc2c(c1)c1cc3cnccc3c(C)c1n2Cc1ccccc1` [Compound 17, 6-benzyl-9-methoxy-5-methyl-6H-pyrido[4,3-b]carbazole] gave an inhibitory constant (Ki) in assay [1] (Table D) of over 200 µM.
`Cc1c2ccncc2cc2c3cc(OCCCC(=N)N)ccc3n(C)c12` [Example 44a, 4-((5,6-dimethyl-6H-pyrido[4,3-b]carbazol-9-yl)oxy)butanimidamide] came in with a Ki in assay [1] (Table D) of 10 µM.
As for `COc1ccc2[nH]c3c(C)c4ccncc4c(O)c3c2c1` [Example 48, 9-methoxy-5-methyl-6H-pyrido[4,3-b]carbazol-11-ol], the inhibitory constant (Ki) in assay [1] (Table D) is over 200 µM.
